{
  "source": "patent US20090117613A1",
  "about": "“Method for redox reaction using an old yellow enzyme” (priority 2007, published 2009)",
  "type_in_all_cases": "binding",
  "key": {"[1]": {"target": "T1, Geobacillus kaustophilus Old Yellow Enzyme (GkOYE, YP—148185.1), wild type (Geobacillus kaustophilus, UniProt Q5KXG9)", "T1 construct": "made in house; host or cells: E. coli DH5α", "T1 sequence (Q5KXG9 1-340)": "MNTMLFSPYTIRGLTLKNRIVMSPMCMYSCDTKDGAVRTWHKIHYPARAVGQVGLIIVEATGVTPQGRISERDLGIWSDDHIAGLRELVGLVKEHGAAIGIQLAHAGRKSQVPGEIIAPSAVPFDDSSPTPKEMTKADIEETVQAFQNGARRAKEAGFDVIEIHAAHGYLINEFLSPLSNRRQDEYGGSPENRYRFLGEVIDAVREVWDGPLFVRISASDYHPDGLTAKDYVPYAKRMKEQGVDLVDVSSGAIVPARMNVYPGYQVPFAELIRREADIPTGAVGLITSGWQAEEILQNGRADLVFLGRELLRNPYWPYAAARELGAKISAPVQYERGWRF", "test": "Titration of wild type GkOYE with pHBA", "description": "(§1) Mutants of GkOYE (Y28F, H164A, H167A; H164A/H167A; 2 clones each) were transformed into and expressed in E. coli DH5alpha."}, "[2]": {"target": "T2, Geobacillus kaustophilus Old Yellow Enzyme (GkOYE, YP—148185.1) mutant H164A/H167A (Geobacillus kaustophilus, UniProt Q5KXG9, H164A/H167A)", "T2 construct": "made in house; host or cells: E. coli DH5alpha", "T2 sequence (Q5KXG9 whole entry H164A/H167A)": "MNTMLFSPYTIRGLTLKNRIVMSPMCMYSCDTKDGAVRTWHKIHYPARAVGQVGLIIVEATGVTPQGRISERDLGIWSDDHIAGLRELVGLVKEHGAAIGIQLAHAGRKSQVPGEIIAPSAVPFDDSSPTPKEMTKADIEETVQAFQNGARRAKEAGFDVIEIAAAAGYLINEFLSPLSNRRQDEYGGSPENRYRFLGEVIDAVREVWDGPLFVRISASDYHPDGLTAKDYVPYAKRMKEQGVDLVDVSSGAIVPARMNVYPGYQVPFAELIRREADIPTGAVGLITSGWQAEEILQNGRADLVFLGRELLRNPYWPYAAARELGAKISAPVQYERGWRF", "test": "Titration of GkOYE double mutant H164A/H167A with pHBA", "description": "as §1"}, "[3]": {"target": "T3, Geobacillus kaustophilus Old Yellow Enzyme (GkOYE, YP—148185.1) mutant H167A (Geobacillus kaustophilus, UniProt Q5KXG9, H167A)", "T3 construct": "made in house; host or cells: E. coli DH5alpha", "T3 sequence (Q5KXG9 whole entry H167A)": "as the sequence (Q5KXG9 whole entry H164A/H167A) above, with A164H counted along it", "test": "Titration of GkOYE mutant H167A with pHBA", "description": "as §1"}, "[4]": {"target": "T4, Geobacillus kaustophilus Old Yellow Enzyme (GkOYE, YP—148185.1) mutant H164A (Geobacillus kaustophilus, UniProt Q5KXG9, H164A)", "T4 construct": "made in house; host or cells: E. coli DH5alpha", "T4 sequence (Q5KXG9 whole entry H164A)": "as the sequence (Q5KXG9 whole entry H164A/H167A) above, with A167H counted along it", "test": "Titration of GkOYE mutant H164A with pHBA", "description": "as §1"}, "[5]": {"target": "T5, Geobacillus kaustophilus Old Yellow Enzyme (GkOYE, YP—148185.1) mutant Y28F (Geobacillus kaustophilus, UniProt Q5KXG9, Y28F)", "T5 construct": "made in house; host or cells: E. coli DH5alpha", "T5 sequence (Q5KXG9 whole entry Y28F)": "as the sequence (Q5KXG9 whole entry H164A/H167A) above, with Y28F, A164H, A167H counted along it", "test": "Titration of GkOYE mutant Y28F with pHBA", "description": "as §1"}},
  "data": [
    {"smiles": "O=Cc1ccc(O)cc1", "note": "[pHBA]", "values": [
      {"measurement": "Kd", "setting": "[1]", "result": 3.1, "unit": "µM"},
      {"measurement": "Kd", "setting": "[2]", "result": "1000 to 10000", "unit": "µM"},
      {"measurement": "Kd", "setting": "[3]", "result": "1000 to 10000", "unit": "µM"},
      {"measurement": "Kd", "setting": "[4]", "result": "1000 to 10000", "unit": "µM"},
      {"measurement": "Kd", "setting": "[5]", "result": "1000 to 10000", "unit": "µM"}
    ]}
  ]
}
